# Structures can show the parent of a compound that is named as a salt. Where two headings read alike, the source gives them in different places.
# Columns and labels:
# [1] = biological target: T1, full length recombinant Pim-2 protein (Homo sapiens, UniProt Q9P1W9); experiment: Pim-2 enzyme assay (HTRF, phosphorylation of biotinylated-BAD (S112) peptide); assay type: biochemical; conditions: read-out: Pim2_IC50
# T1 construct: by full length recombinant Pim-1, Pim-2, or Pim-3 protein; hexahistidine tag followed by a thrombin cleavage site (N); made in house; host or cells: Sf9 (baculovirus) or E. coli (pET28)
# Outline: (§1)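 Kinase: full-length human Pim-1/Pim-2, His6-thrombin tagged. Substrate biotin-BAD (S112) peptide. Buffer 60 mM Hepes pH 7.0, 0.05% BSA, 2 mM DTT. Stop 3 mM EDTA. Detection HTRF (Eu anti-pBAD/SA-APC). IC50 by 4-parameter logistic on POC.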
# [2] = biological target: T2, full length recombinant Pim-1 protein (Homo sapiens, UniProt P11309); experiment: Pim-1 enzyme assay (HTRF, phosphorylation of biotinylated-BAD (S112) peptide); assay type: biochemical; conditions: read-out: Pim_1_IC50
# T2 construct: by full length recombinant Pim-1, Pim-2, or Pim-3 protein; hexahistidine tag followed by a thrombin cleavage site (N); made in house; host or cells: Sf9 (baculovirus) or E. coli (pET28)
# Outline: as §1
# KMS-Cell = experiment: KMS cell IC50 (Table 4); assay type: cell-based; conditions: KMS cells
# [3] = biological target: T3, Pim-2 stably transfected into the U2OS human osteogenic sarcoma line (Homo sapiens, UniProt Q9P1W9); experiment: Pim cell assay, phospho-BAD normalized against total BAD, U2OS stably transfected with Pim-2; assay type: cell-based; conditions: read-out: Pim2_Cell_IC50; note: high dose 31.6 µM
# T3 construct: expressed in transfected cells; host or cells: U2OS human osteogenic sarcoma line
# Outline: (§2)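 U2OS cells stably expressing Pim-1 or Pim-2 were plated overnight at 37 °C, then dosed over a 10-point curve (final 0.3% DMSO; DMSO alone as high control). Lysates assayed for phospho- and total BAD by Meso Scale immunoassay; % phosphoprotein = (2×phospho)/(phospho+total)×100.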
# [4] = biological target: T4, Pim-1 stably transfected into the U2OS human osteogenic sarcoma line (Homo sapiens, UniProt P11309); experiment: Pim cell assay, phospho-BAD normalized against total BAD, U2OS stably transfected with Pim-1; assay type: cell-based; conditions: read-out: Pim1_Cell_IC50
# T4 construct: expressed in transfected cells; host or cells: U2OS human osteogenic sarcoma line
# Outline: as §2
# [5] = biological target: T5, full length recombinant Pim-3 protein (Homo sapiens, UniProt Q86V86); experiment: Pim-3 enzyme assay (HTRF, phosphorylation of biotinylated-BAD (S112) peptide); assay type: biochemical; conditions: read-out: Pim3 IC50
# T5 construct: by full length recombinant Pim-1, Pim-2, or Pim-3 protein; purchased Millipore (UK)
# Outline: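 Full-length recombinant Pim-3 phosphorylates biotinylated BAD (S112) peptide in 60 mM Hepes pH 7.0, 0.05% BSA, 2 mM DTT; reaction stopped with 3 mM EDTA. Phospho-BAD detected by HTRF (Eu anti-phospho-BAD S112 antibody, streptavidin-APC). IC50 from percent-of-control values fitted to a 4-parameter logistic model.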
# [6] = U2OS cells stably transfected with Pim-2, phospho-BAD, high dose […]
# [7] = U2OS cells stably transfected with Pim-1, phospho-BAD, high dose […]
# T3 sequence (Q9P1W9 whole entry): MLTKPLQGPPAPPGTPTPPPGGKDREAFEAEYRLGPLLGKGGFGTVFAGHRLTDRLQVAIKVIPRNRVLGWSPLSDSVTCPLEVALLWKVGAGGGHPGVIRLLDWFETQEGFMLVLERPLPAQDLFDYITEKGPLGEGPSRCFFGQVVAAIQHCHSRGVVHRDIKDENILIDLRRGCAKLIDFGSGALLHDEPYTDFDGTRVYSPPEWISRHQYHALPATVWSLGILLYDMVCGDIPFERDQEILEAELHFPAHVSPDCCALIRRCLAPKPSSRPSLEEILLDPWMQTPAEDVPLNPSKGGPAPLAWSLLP
# T1 sequence (Q9P1W9 whole entry): as above
# T4 sequence (P11309 whole entry): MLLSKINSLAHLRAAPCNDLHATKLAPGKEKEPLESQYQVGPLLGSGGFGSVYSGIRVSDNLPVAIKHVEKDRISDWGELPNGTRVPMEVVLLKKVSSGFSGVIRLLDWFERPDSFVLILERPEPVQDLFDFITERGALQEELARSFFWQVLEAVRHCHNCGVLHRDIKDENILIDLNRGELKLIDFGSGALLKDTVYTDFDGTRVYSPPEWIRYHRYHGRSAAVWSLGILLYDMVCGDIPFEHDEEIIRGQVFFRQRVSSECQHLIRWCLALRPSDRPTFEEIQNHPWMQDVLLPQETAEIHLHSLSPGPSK
# T2 sequence (P11309 whole entry): as above
IC50 [1] [nM],IC50 [2] [nM],IC50 (KMS-Cell) [nM],"IC50 ([1]; enzyme assay, Pim-2) [nM]","IC50 [3, 6] [nM]","IC50 ([2]; enzyme assay, Pim-1) [nM]","IC50 [4, 7] [nM]",IC50 [5] [nM],IC50 [3] [nM],IC50 [4] [nM],Structure (SMILES)
21,9,4840,,,,,,,,CC(O)c1cccc(-c2ccc3[nH]cc(-c4cncc(O[C@@H]5CCCNC5)n4)c3c2)c1 (mixture of isomers) [Example 359]
43,17,> 31600,,,,,,,,"O[C@@H]1CN(c2cncc(-c3n[nH]c4ccc(-c5c(F)cccc5F)cc34)n2)CC[C@@H]1O (racemic) [Example 248, cis-1-(6-(5-(2,6-difluorophenyl)-1H-indazol-3-yl)-2-pyrazinyl)-3,4-piperidinediol]"
54,13,13000,,,,,,,,"Fc1cccc(F)c1-c1ccc2[nH]nc(-c3cncc(CC4CCCNC4)n3)c2c1 (racemic) [Example 272, 5-(2,6-difluorophenyl)-3-(6-(3-piperidinylmethyl)-2-pyrazinyl)-1H-indazole ditrifluoroacetate]"
1,2,1890,,,,,,,,"O=c1cc(-c2n[nH]c3ccc(-c4ccc(Cl)cc4F)cc23)nc(O[C@@H]2CNCC[C@H]2F)[nH]1 (racemic) [Example 283, 6-(5-(4-chloro-2-fluorophenyl)-1H-indazol-3-yl)-2-((trans-4-fluoropiperidin-3-yl)oxy)pyrimidin-4(3H)-one trifluoroacetate]"
1,,3540,,,,,,,,"O=c1cc(-c2n[nH]c3ccc(-c4nccs4)cc23)nc(O[C@@H]2CNCC[C@H]2F)[nH]1 (racemic) [Example 289, 2-((trans-4-fluoropiperidin-3-yl)oxy)-6-(5-(thiazol-2-yl)-1H-indazol-3-yl)pyrimidin-4(3H)-one trifluoroacetate]"
6,13,2800,,,,,,,,"CC(c1ccc2[nH]nc(-c3cncc(O[C@H]4CNCCC45CC5)n3)c2c1)C(F)(F)F (single isomer, unassigned) [Example 259]"
,,,15,7580,4,211,7,,,"C[C@H]1CCNC[C@@H]1Oc1cncc(-c2n[nH]c3ccc(-c4c(F)cccc4F)cc23)n1 [Example 195, 5-(2,6-difluorophenyl)-3-(6-(((3R,4S)-4-methyl-3-piperidinyl)oxy)-2-pyrazinyl)-1H-indazole]"
,,,13,5090,4,146,5,,,"C[C@H]1CCNC[C@@H]1Oc1cncc(-c2n[nH]c3ccc(-c4c(F)cccc4F)cc23)n1 [Example 198, 5-(2,6-difluorophenyl)-3-(6-(((3R,4S)-4-methyl-3-piperidinyl)oxy)-2-pyrazinyl)-1H-indazole]"
,,,16,3410,5,400,4,,,"C[C@H]1CCNC[C@H]1Oc1cncc(-c2n[nH]c3ccc(-c4c(F)cccc4F)cc23)n1 [Example 199, 5-(2,6-difluorophenyl)-3-(6-(((3S,4S)-4-methyl-3-piperidinyl)oxy)-2-pyrazinyl)-1H-indazole]"
,,,66,> 31600,1,611,5,,,"N[C@H]1CCCN(c2cncc(-c3c[nH]c4ccc(-c5c(F)cccc5F)cc34)n2)C1 [Example 201, (3S)-1-(6-(5-(2,6-difluorophenyl)-1H-indol-3-yl)-2-pyrazinyl)-3-piperidinamine]"
,,,29,4330,4,273,4,,,"Fc1cccc(F)c1-c1ccc2[nH]cc(-c3cncc(NC4CCNCC4)n3)c2c1 [Example 205, 6-(5-(2,6-difluorophenyl)-1H-indol-3-yl)-N-4-piperidinyl-2-pyrazinamine]"
,,,54,20400,2,326,6,,,"Fc1cccc(F)c1-c1ccc2[nH]cc(-c3cncc(OC4CCNCC4)n3)c2c1 [Example 206, 5-(2,6-difluorophenyl)-3-(6-(4-piperidinyloxy)-2-pyrazinyl)-1H-indole]"
,,,11,3030,1,102,4,,,"Fc1cccc(F)c1-c1ccc2[nH]cc(-c3cncc(N[C@@H]4CCCNC4)n3)c2c1 [Example 207, 6-(5-(2,6-difluorophenyl)-1H-indol-3-yl)-N-((3R)-3-piperidinyl)-2-pyrazinamine]"
,,,15,4620,2,381,4,,,"Fc1cccc(F)c1-c1ccc2[nH]cc(-c3cncc(N[C@@H]4CCNC4)n3)c2c1 [Example 208, 6-(5-(2,6-difluorophenyl)-1H-indol-3-yl)-N-((3R)-3-pyrrolidinyl)-2-pyrazinamine]"
,,,89,,36,,49,30300,1180,"Fc1cccc(F)c1-c1ccc2[nH]cc(-c3nccc(O[C@@H]4CCCNC4)n3)c2c1 [Example 209, 5-(2,6-difluorophenyl)-3-(4-((3R)-3-piperidinyloxy)-2-pyrimidinyl)-1H-indole]"
,,,445,,86,,61,> 31600,3790,"Fc1cccc(F)c1-c1ccc2[nH]cc(-c3nccc(OC4CCNCC4)n3)c2c1 [Example 211, 5-(2,6-difluorophenyl)-3-(4-(4-piperidinyloxy)-2-pyrimidinyl)-1H-indole]"
,,,185,> 31600,15,997,18,,,"N[C@@H]1CCN(c2cncc(-c3c[nH]c4ccc(-c5c(F)cccc5F)cc34)n2)C1 [Example 212, (3R)-1-(6-(5-(2,6-difluorophenyl)-1H-indol-3-yl)-2-pyrazinyl)-3-pyrrolidinamine]"
,,,343,,22,,40,18900,1370,"CC(C)Oc1cncc(-c2ccc3[nH]cc(-c4cncc(O[C@@H]5CCCNC5)n4)c3c2)n1 [Example 213, 5-(6-(1-methylethoxy)-2-pyrazinyl)-3-(6-((3R)-3-piperidinyloxy)-2-pyrazinyl)-1H-indole]"
,,,506,,50,,33,> 31600,1920,"CC(C)Oc1cncc(-c2ccc3[nH]cc(-c4ccc5cn[nH]c5c4)c3c2)n1 [Example 221, 6-(5-(6-(1-methylethoxy)-2-pyrazinyl)-1H-indol-3-yl)-1H-indazole]"
,,,> 3000,,77,,138,> 31600,1470,"CC(C)Oc1cncc(-c2ccc3[nH]cc(-c4cncc(N5CCOCC5)n4)c3c2)n1 [Example 225, 5-(6-(1-methylethoxy)-2-pyrazinyl)-3-(6-(4-morpholinyl)-2-pyrazinyl)-1H-indole]"
,,,> 3000,,100,,206,> 15800,> 15800,"CC(C)Oc1cncc(-c2ccc3[nH]cc(-c4csc(-n5ccccc5=O)n4)c3c2)n1 [Example 227, 1-(4-(5-(6-(1-methylethoxy)-2-pyrazinyl)-1H-indol-3-yl)-1,3-thiazol-2-yl)-2(1H)-pyridinone]"
,,,1410,,43,,42,> 31600,3420,"CC(C)Oc1cncc(-c2ccc3[nH]cc(-c4csc(-n5ccnc5)n4)c3c2)n1 [Example 228, 3-(2-(1H-imidazol-1-yl)-1,3-thiazol-4-yl)-5-(6-(1-methylethoxy)-2-pyrazinyl)-1H-indole]"
,,,2360,,89,,50,> 31600,2830,"CC(C)Oc1cncc(-c2ccc3[nH]cc(-c4cncc(N(C)C)n4)c3c2)n1 [Example 230, N,N-dimethyl-6-(5-(6-(1-methylethoxy)-2-pyrazinyl)-1H-indol-3-yl)-2-pyrazinamine]"
1,,560,,,,,,,,CC(=O)Nc1ccc(-c2ccc3[nH]nc(-c4cncc(O[C@H]5CNCCC56CC6)n4)c3c2)c(F)c1 [Example 462]
1,,346,,,,,,,,Nc1ccc(-c2ccc3[nH]nc(-c4cncc(O[C@H]5CNCCC56CC6)n4)c3c2)c(F)n1 [Example 466]
1,,633,,,,,,,,O=c1cc(-c2n[nH]c3cc(F)c(-c4c(F)cccc4F)cc23)nc(O[C@H]2CNCC[C@@H]2F)[nH]1 [Example 544]
,,307,,,,,,,,O=c1cc(-c2n[nH]c3ccc(-c4c(F)cccc4F)cc23)nc(OC2CNCCC2F)[nH]1 (stereo not shown) [Example 555]

# — patent US9090593B2, “Bicyclic compounds as Pim inhibitors” (AMGEN INC., priority 2010, dated 2015)
